In patent US20050234046A1 (Kalypsys, Inc., priority 2004, published 2005) one finds EC50 data, which are given here for 27 compounds.

Each structure is given as a SMILES string. pEC50: −log10 of the molar value.

Experiment in all cases: Transient transfection (transactivation) assay in CV-1 cells, GAL4-PPAR chimera, luciferase reporter
Format in all cases: cell-based
(Reporter assays use an easily measured gene product as a stand-in for the process of interest.)

One assay has as its target T1, PPAR alpha (Homo sapiens, UniProt Q07869).
T1 construct: expressed in transfected cells; host or cells: CV-1 cells
T1 sequence (Q07869 239-466 limits assumed): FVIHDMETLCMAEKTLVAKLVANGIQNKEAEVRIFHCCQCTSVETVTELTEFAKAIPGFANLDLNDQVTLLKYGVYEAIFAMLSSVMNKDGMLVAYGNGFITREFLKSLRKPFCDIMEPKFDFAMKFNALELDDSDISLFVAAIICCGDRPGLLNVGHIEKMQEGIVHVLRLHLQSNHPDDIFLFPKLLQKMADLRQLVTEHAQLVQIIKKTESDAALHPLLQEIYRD
Summed up: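 GAL4 DNA-binding domain fused to PPAR ligand binding domain, co-transfected into CV-1 cells with a luciferase reporter carrying four or five GAL4 sites. Replated cells in phenol-red free DME with 5% delipidated calf serum were treated with compound or 1% DMSO for 20-24 hours; luciferase read for EC50 and efficacy.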

A further assay deals with T2, PPAR delta (Homo sapiens, UniProt Q03181).
T2 construct: expressed in transfected cells; host or cells: CV-1 cells
T2 sequence (Q03181 211-439 limits assumed): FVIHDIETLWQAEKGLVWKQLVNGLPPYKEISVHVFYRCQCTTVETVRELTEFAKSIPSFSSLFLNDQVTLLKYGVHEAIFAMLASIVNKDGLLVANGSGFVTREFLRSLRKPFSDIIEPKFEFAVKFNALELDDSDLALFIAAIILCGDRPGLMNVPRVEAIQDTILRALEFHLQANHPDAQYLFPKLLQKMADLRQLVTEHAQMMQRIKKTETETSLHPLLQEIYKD

The target in a further assay is T3, PPAR gamma (Homo sapiens, UniProt P37231).
T3 construct: expressed in transfected cells; host or cells: CV-1 cells
T3 sequence (P37231 238-503 limits assumed): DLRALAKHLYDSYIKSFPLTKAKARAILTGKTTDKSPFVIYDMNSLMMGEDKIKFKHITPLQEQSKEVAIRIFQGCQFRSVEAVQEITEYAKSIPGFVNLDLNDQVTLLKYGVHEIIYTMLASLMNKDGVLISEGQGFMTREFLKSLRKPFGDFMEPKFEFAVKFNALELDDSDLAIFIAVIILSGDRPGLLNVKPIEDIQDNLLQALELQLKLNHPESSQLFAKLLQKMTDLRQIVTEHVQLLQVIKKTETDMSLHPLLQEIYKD

Excerpt for PPAR delta: Compounds may be screened for functional potency in transient transfection assays in CV-1 cells or other cell types for their ability to activate the PPAR subtypes (transactivation assay). A previously established chimeric receptor system was utilized to allow comparison of the relative transcriptional activity of the receptor subtypes on the same synthetic response element and to prevent endogenous receptor activation from complicating the interpretation of results. […] The ligand binding domains for murine and human PPAR-alpha, PPAR-gamma, and PPAR-delta are each fused to the yeast transcription factor GAL4 DNA binding domain. CV-1 cells were transiently transfected with expression vectors for the respective PPAR chimera along with a reporter construct containing four or five copies of the GAL4 DNA binding site driving expression of luciferase. After 8-16 h, the cells are replated into multi-well assay plates and the media is exchanged to phenol-red free DME medium supplemented with 5% delipidated calf serum. 4 hours after replating, cells were treated with either compounds or 1% DMSO for 20-24 hours. Luciferase activity was then assayed with Britelite (Perkin Elmer) following the manufacturer's protocol and measured with either the Perkin Elmer Viewlux or Molecular Devices Acquest Xsee, for example, Kliewer, S. A., et. al. Cell 1995, 83, 813-819). Rosiglitazone is used as a positive control in the hPPAR-γ assay. Wy-14643 and GW7647 is used as a positive control in the hPPAR-α assay. GW501516 is used as the positive control in the hPPAR-δ assay.

By pEC50 is commonly meant the EC50 on a negative log10 scale, so that one unit is a factor of ten. High values mean a small EC50, low ones a large EC50. `O=C(O)Cc1cccc(S(=O)(=O)N2CCN(c3ccc(F)cc3)CC2)c1` [Example 144, {3-[4-(4-Fluoro-phenyl)-piperazine-1-sulfonyl]-phenyl}-acetic acid]: the figures for the pEC50 on PPAR alpha, on PPAR delta and at PPAR gamma were below 4.00, 4.00 to 5.30 and 4.00 to 5.30, respectively.

Take `O=C(O)Cc1cccc(S(=O)(=O)N2CCN(c3ccccc3)CC2)c1` [Example 145, [3-(4-Phenyl-piperazine-1-sulfonyl)-phenyl]-acetic acid]: the pEC50 on PPAR alpha was below 4.00; on PPAR delta it was 4.00 to 5.30; on PPAR gamma it was below 4.00.

With `O=C(O)Cc1cccc(S(=O)(=O)N2CCN(C(c3ccccc3)c3ccccc3)CC2)c1` [Example 146, [3-(4-Benzhydryl-piperazine-1-sulfonyl)-phenyl]-acetic acid], the pEC50 at PPAR alpha is below 4.00; on PPAR delta it was below 4.00; on PPAR gamma, 4.00 to 5.30.

Consider `Cc1ccc(CC(=O)O)cc1S(=O)(=O)N1CCN(c2ccc(Cl)cc2)CC1` [Example 147, {3-[4-(4-Chloro-phenyl)-piperazine-1-sulfonyl]-4-methyl-phenyl}-acetic acid], for which the pEC50 was below 4.00 at PPAR alpha, above 5.30 at PPAR delta and 4.00 to 5.30 at PPAR gamma.

For `Cc1ccc(N2CCN(S(=O)(=O)c3cc(CC(=O)O)ccc3C)CC2)c(C)c1` [Example 148, {3-[4-(2,4-Dimethyl-phenyl)-piperazine-1-sulfonyl]-4-methyl-phenyl}-acetic acid], the pEC50 on PPAR alpha, at PPAR delta and on PPAR gamma was below 4.00 throughout.

Regarding `Cc1cccc(N2CCN(S(=O)(=O)c3cc(CC(=O)O)ccc3C)CC2C)c1` (stereo not drawn) [Example 149, [4-Methyl-3-(3-methyl-4-m-tolyl-piperazine-1-sulfonyl)-phenyl]-acetic acid], the pEC50 was below 4.00 at PPAR alpha, below 4.00 on PPAR delta and 4.00 to 5.30 at PPAR gamma.

`Cc1ccc(N2CCN(S(=O)(=O)c3cc(CC(=O)O)ccc3C)CC2)cc1C` [Example 150, {3-[4-(3,4-Dimethyl-phenyl)-piperazine-1-sulfonyl]-4-methyl-phenyl}-acetic acid]: the pEC50 on PPAR alpha is below 4.00; at PPAR delta, 4.00 to 5.30; on PPAR gamma, 4.00 to 5.30.

For the compound `Cc1ccc(Cl)cc1N1CCN(S(=O)(=O)c2cc(CC(=O)O)ccc2C)CC1` [Example 151, {3-[4-(5-Chloro-2-methyl-phenyl)-piperazine-1-sulfonyl]-4-methyl-phenyl}-acetic acid], the pEC50 was below 4.00 at PPAR alpha, below 4.00 at PPAR delta and 4.00 to 5.30 on PPAR gamma.

Consider `Cc1ccc(CC(=O)O)cc1S(=O)(=O)N1CCN(CCc2ccccc2)CC1` [Example 152, [4-Methyl-3-(4-phenethyl-piperazine-1-sulfonyl)-phenyl]-acetic acid], for which the pEC50 on PPAR alpha was below 4.00; on PPAR delta, below 4.00; at PPAR gamma it was 4.00 to 5.30.

Consider `Cc1ccc(CC(=O)O)cc1S(=O)(=O)N1CCN(c2ccc(C#N)cc2)CC1` [Example 153, {3-[4-(4-Cyano-phenyl)-piperazine-1-sulfonyl]-4-methyl-phenyl}-acetic acid], for which the pEC50 at PPAR alpha, at PPAR delta and at PPAR gamma was below 4.00 each time.

Regarding `Cc1ccc(CC(=O)O)cc1S(=O)(=O)N1CCN(Cc2ccc(F)cc2)CC1` [Example 154, {3-[4-(4-Fluoro-benzyl)-piperazine-1-sulfonyl]-4-methyl-phenyl}-acetic acid], the pEC50 is below 4.00 at PPAR alpha, below 4.00 on PPAR delta and 4.00 to 5.30 on PPAR gamma.

Turning to `COc1ccc(N2CCN(S(=O)(=O)c3cc(CC(=O)O)ccc3C)CC2)cc1` [Example 155, {3-[4-(4-Methoxy-phenyl)-piperazine-1-sulfonyl]-4-methyl-phenyl}-acetic acid], the pEC50 on PPAR alpha, on PPAR delta and on PPAR gamma was below 4.00 throughout.

As for `Cc1ccc(CC(=O)O)cc1S(=O)(=O)N1CCN(c2ccc(C(C)(C)C)cc2)CC1` [Example 156, {3-[4-(4-tert-Butyl-phenyl)-piperazine-1-sulfonyl]-4-methyl-phenyl}-acetic acid], the pEC50 on PPAR alpha is below 4.00; at PPAR delta, 4.00 to 5.30; at PPAR gamma, 4.00 to 5.30.

On to `COc1ccc(N2CCN(S(=O)(=O)c3cc(CC(=O)O)ccc3C)CC2)cc1OC` [Example 157, {3-[4-(3,4-Dimethoxy-phenyl)-piperazine-1-sulfonyl]-4-methyl-phenyl}-acetic acid], for which the pEC50 at PPAR alpha, at PPAR delta and at PPAR gamma was below 4.00 throughout.

Take `Cc1ccc(CC(=O)O)cc1S(=O)(=O)N1CCN(c2ccc(C(F)(F)F)cc2[N+](=O)[O-])CC1` [Example 158, {4-Methyl-3-[4-(2-nitro-4-trifluoromethyl-phenyl)-piperazine-1-sulfonyl]-phenyl}-acetic acid]: the pEC50 on PPAR alpha was below 4.00; at PPAR delta, 4.00 to 5.30; on PPAR gamma, below 4.00.

`COc1ccccc1N1CCN(S(=O)(=O)c2cc(CC(=O)O)ccc2C)CC1` [Example 159, {3-[4-(2-Methoxy-phenyl)-piperazine-1-sulfonyl]-4-methyl-phenyl}-acetic acid]: the pEC50 at PPAR alpha, on PPAR delta and on PPAR gamma was below 4.00 throughout.

As to `Cc1ccc(C)c(N2CCN(S(=O)(=O)c3cc(CC(=O)O)ccc3C)CC2)c1` [Example 160, {3-[4-(2,5-Dimethyl-phenyl)-piperazine-1-sulfonyl]-4-methyl-phenyl}-acetic acid], the pEC50 at PPAR alpha is below 4.00; on PPAR delta it was below 4.00; at PPAR gamma, 4.00 to 5.30.

`Cc1ccc(CC(=O)O)cc1S(=O)(=O)N1CCN(CC2CCCCC2)CC1` [Example 161, [3-(4-Cyclohexylmethyl-piperazine-1-sulfonyl)-4-methyl-phenyl]-acetic acid]: the pEC50 on PPAR alpha was below 4.00; at PPAR delta, below 4.00; at PPAR gamma, 4.00 to 5.30.

Regarding `Cc1ccc(CC(=O)O)cc1S(=O)(=O)N1CCN(c2ccccc2C#N)CC1` [Example 162, {3-[4-(2-Cyano-phenyl)-piperazine-1-sulfonyl]-4-methyl-phenyl}-acetic acid], the pEC50 at PPAR alpha, at PPAR delta and at PPAR gamma was below 4.00 in each case.

As to `Cc1ccc(CC(=O)O)cc1S(=O)(=O)N1CCN(c2cnccn2)CC1` [Example 163, [4-Methyl-3-(2,3,5,6-tetrahydro-[1,2]bipyrazinyl-4-sulfonyl)-phenyl]-acetic acid], the negative logarithm of the EC50 (pEC50) at PPAR alpha, on PPAR delta and at PPAR gamma was below 4.00 in each case.

As to `Cc1ccc(CC(=O)O)cc1S(=O)(=O)N1CCN(C(c2ccccc2)c2ccc(Cl)cc2)CC1` (stereo not drawn) [Example 164], the pEC50 at PPAR alpha is below 4.00; on PPAR delta it was 4.00 to 5.30; at PPAR gamma it was 4.00 to 5.30.

In the case of `Cc1ccc(CC(=O)O)cc1S(=O)(=O)N1CCN(c2ccc(Cl)c(Cl)c2)CC1` [Example 165, {3-[4-(3,4-Dichloro-phenyl)-piperazine-1-sulfonyl]-4-methyl-phenyl}-acetic acid], the figures for the negative logarithm of the EC50 (pEC50) at PPAR alpha, at PPAR delta and at PPAR gamma were below 4.00, above 5.30 and 4.00 to 5.30, respectively.

On to `Cc1cc(CC(=O)O)cc(S(=O)(=O)N2CCN(c3ccc(Cl)c(Cl)c3)CC2)c1` [Example 166, {3-[4-(3,4-Dichloro-phenyl)-piperazine-1-sulfonyl]-5-methyl-phenyl}-acetic acid], for which the pEC50 on PPAR alpha is 4.00 to 5.30; on PPAR delta, above 5.30; at PPAR gamma it was 4.00 to 5.30.

As to `Cc1cc(CC(=O)O)cc(S(=O)(=O)N2CCN(c3ccc(Cl)cc3)CC2)c1` [Example 167, {3-[4-(4-Chloro-phenyl)-piperazine-1-sulfonyl]-5-methyl-phenyl}-acetic acid], the pEC50 on PPAR alpha is below 4.00; on PPAR delta, above 5.30; on PPAR gamma it was 4.00 to 5.30.

For the compound `Cc1cccc(N2CCN(S(=O)(=O)c3cc(C)cc(CC(=O)O)c3)CC2C)c1` (stereo not drawn) [Example 168, [3-Methyl-5-(3-methyl-4-m-tolyl-piperazine-1-sulfonyl)-phenyl]-acetic acid], the pEC50 on PPAR alpha is below 4.00; at PPAR delta, 4.00 to 5.30; on PPAR gamma, 4.00 to 5.30.

In the case of `Cc1cc(CC(=O)O)cc(S(=O)(=O)N2CCN(c3ccc(C)c(C)c3)CC2)c1` [Example 169, {3-[4-(3,4-Dimethyl-phenyl)-piperazine-1-sulfonyl]-5-methyl-phenyl}-acetic acid], the pEC50 on PPAR alpha was below 4.00; at PPAR delta, 4.00 to 5.30; at PPAR gamma, 4.00 to 5.30.

For the compound `Cc1cc(CC(=O)O)cc(S(=O)(=O)N2CCN(c3ccc(F)cc3F)CC2)c1` [Example 170], the negative-log EC50 (pEC50) on PPAR alpha was below 4.00; at PPAR delta, 4.00 to 5.30; on PPAR gamma it was below 4.00.
